In the supplement of paper PMC10307832:

Columns and labels:
Assay in all cases: relative viability (nuclei count vs DMSO), 5 days (fraction); higher = more cells survive
Vemurafenib + Trametinib = compound: CCCS(=O)(=O)Nc1ccc(F)c(C(=O)c2c[nH]c3ncc(-c4ccc(Cl)cc4)cc23)c1F [Vemurafenib] + CC(=O)Nc1cccc(-n2c(=O)n(C3CC3)c(=O)c3c(Nc4ccc(I)cc4F)n(C)c(=O)c(C)c32)c1 [Trametinib] (partner 0.02 µM)
How it was run: (§1)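 Dosing by pin tool came one day after lung cancer cell lines were seeded in 1536-well plates, using either one drug or a fixed anchor-drug dose plus five library-drug doses (not always all listed) in √10 steps. After 5 days, nuclei were counted on 4× images. Relative viability is treated-well nuclei count divided by vehicle-well nuclei count, and values are medians of duplicate plates.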

Vemurafenib + Pemetrexed = compound: CCCS(=O)(=O)Nc1ccc(F)c(C(=O)c2c[nH]c3ncc(-c4ccc(Cl)cc4)cc23)c1F [Vemurafenib] + Nc1nc2[nH]cc(CCc3ccc(C(=O)N[C@@H](CCC(=O)O)C(=O)O)cc3)c2c(=O)[nH]1 [Pemetrexed] (partner 0.2 µM)
How it was run: as §1

OSI-027 + Lapatinib = compound: COc1cccc2cc(-c3nc([C@H]4CC[C@H](C(=O)O)CC4)n4ncnc(N)c34)[nH]c12 [OSI-027] + CS(=O)(=O)CCNCc1ccc(-c2ccc3ncnc(Nc4ccc(OCc5cccc(F)c5)c(Cl)c4)c3c2)o1 [Lapatinib] (partner 2 µM)
How it was run: as §1

Alpelisib + Pemetrexed = compound: Cc1nc(NC(=O)N2CCC[C@H]2C(N)=O)sc1-c1ccnc(C(C)(C)C(F)(F)F)c1 [Alpelisib] + Nc1nc2[nH]cc(CCc3ccc(C(=O)N[C@@H](CCC(=O)O)C(=O)O)cc3)c2c(=O)[nH]1 [Pemetrexed] (partner 0.2 µM)
How it was run: as §1

Row | Cell Line | relative viability (Vemurafenib + Trametinib; first compound 0.03162 µM) | relative viability (Vemurafenib + Trametinib; first compound 0.1 µM) | relative viability (Vemurafenib + Trametinib; first compound 0.3162 µM) | relative viability (Vemurafenib + Trametinib; first compound 1 µM) | relative viability (Vemurafenib + Pemetrexed; first compound 0.03162 µM) | relative viability (Vemurafenib + Pemetrexed; first compound 0.1 µM) | relative viability (Vemurafenib + Pemetrexed; first compound 0.3162 µM) | relative viability (Vemurafenib + Pemetrexed; first compound 1 µM) | relative viability (OSI-027 + Lapatinib; first compound 0.01 µM) | relative viability (OSI-027 + Lapatinib; first compound 0.03162 µM) | relative viability (OSI-027 + Lapatinib; first compound 0.1 µM) | relative viability (OSI-027 + Lapatinib; first compound 0.3162 µM) | relative viability (OSI-027 + Lapatinib; first compound 1 µM) | relative viability (Alpelisib + Pemetrexed; first compound 0.04 µM) | relative viability (Alpelisib + Pemetrexed; first compound 0.1265 µM) | relative viability (Alpelisib + Pemetrexed; first compound 0.4 µM) | relative viability (Alpelisib + Pemetrexed; first compound 1.265 µM) | relative viability (Alpelisib + Pemetrexed; first compound 4 µM)
1 | NCI-H1666 | 0.928 | 0.786 | 1.04 | 0.86 | 0.805 | 0.847 | 0.913 | 0.843 | 0.521 | 0.709 | 0.554 | 0.33 | 0.27 | 0.882 | 0.893 | 0.979 | 0.833 | 0.514
2 | NCI-H1734 | 0.655 | 0.641 | 0.66 | 0.643 | 0.396 | 0.382 | 0.385 | 0.399 | 1.03 | 1.12 | 0.935 | 0.781 | 0.489 | 0.407 | 0.406 | 0.394 | 0.406 | 0.399
3 | NCI-H1755 | 0.812 | 0.73 | 0.761 | 0.763 | 0.512 | 0.453 | 0.422 | 0.398 | 1.01 | 1.06 | 1.01 | 0.817 | 0.579 | 0.409 | 0.432 | 0.437 | 0.371 | 0.402
4 | NCI-H1792 | 0.495 | 0.482 |  | 0.548 | 0.59 | 0.787 |  | 0.747 | 0.749 | 0.826 | 0.815 | 0.739 | 0.213 | 0.897 | 0.479 | 0.992 | 0.688 | 0.462
5 | NCI-H1793 | 0.397 | 0.387 | 0.467 | 0.591 | 0.797 | 0.602 | 0.749 | 1.12 | 0.619 | 0.65 | 0.559 | 0.264 | 0.26 | 0.879 | 0.855 | 0.977 | 0.614 | 0.596
6 | NCI-H1915 | 0.308 | 0.26 | 0.328 | 0.358 | 0.493 | 0.494 | 0.434 | 0.454 | 1.03 | 1.07 | 0.918 | 0.885 | 0.806 | 0.498 | 0.527 | 0.525 | 0.49 | 0.428
7 | NCI-H1944 | 0.453 |  | 0.41 | 0.423 | 0.596 |  | 0.564 | 0.569 | 0.802 | 0.875 | 0.799 | 0.631 | 0.444 | 0.596 | 0.695 | 0.677 | 0.5 | 0.502
8 | NCI-H1975 | 0.328 | 0.327 | 0.259 | 0.281 | 0.285 | 0.284 | 0.262 | 0.299 | 0.897 | 0.864 | 0.958 | 0.688 | 0.401 | 0.298 | 0.293 | 0.294 | 0.285 | 0.279
9 | NCI-H1993 | 0.5 |  | 0.555 | 0.609 | 0.67 |  | 0.642 | 0.628 | 0.786 | 0.808 | 0.773 | 0.785 | 0.693 | 0.606 | 0.544 | 0.571 | 0.545 | 0.432
10 | NCI-H2009 | 0.269 | 0.272 | 0.21 | 0.372 | 1.13 | 0.897 | 0.869 | 0.915 | 0.97 | 0.963 | 0.848 | 0.839 | 0.546 | 0.987 | 1.03 | 1.08 | 1.01 | 0.968
11 | NCI-H2023 | 0.592 | 0.489 | 0.597 | 0.699 | 0.229 | 0.2 | 0.207 | 0.278 | 0.735 | 0.663 | 0.567 | 0.393 | 0.18 | 0.214 | 0.221 | 0.219 | 0.181 | 0.185
12 | NCI-H2085 | 0.529 | 0.477 | 0.663 | 0.621 | 0.764 | 0.6 | 0.585 | 1.04 | 0.7 | 0.799 | 0.565 | 0.506 | 0.434 | 0.848 | 0.847 | 0.86 | 0.865 | 0.803
